Four compounds from ChEMBL document CHEMBL1201862, “PubChem BioAssay data set” (2004) can be followed below.

Each structure is given as a SMILES string.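 All cell lines were grown in 96-well plates and treated with compound for 48 hours. GI50 is the concentration that inhibits growth by half.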 Activity calls are given as the source filed them. No stated cut-off is given here; in the data, active = GI50 up to about 1.1 µM and inactive = higher. Where only a bound is given, the exact number is not on record here.

Test systems include KM12; IGROV-1; HCT-15; SR; SF-539; SNB-75; MCF7; RPMI-8226; A498; RXF 393; NCI/ADR-RES; SK-MEL-5; SF-268; SK-MEL-28; LOX IMVI; HCC 2998; SK-OV-3; HOP-92; SNB-19; M14.
Common to all, as to assay: growth of human tumour cells (NCI), 48 h

`CN(Cc1cnc2nc(N)nc(N)c2n1)c1ccc(C(=O)NC(CCC(=O)O)C(=O)O)cc1C(F)(F)F` (stereo not drawn): the GI50 in the experiment on KM12 is < 0.01 µM (active); with IGROV-1 it was < 0.01 µM (active); in the experiment on HCT-15 it was less than 0.01 µM; with SR it was < 0.01 µM (active); in the experiment with SF-539, < 0.01 µM (active); in the experiment on SNB-75 it was > 100 µM (inactive). Moreover, the GI50 in the experiment on MCF7 is < 0.01 µM (active); in the experiment on RPMI-8226 it was < 0.01 µM (active); with A498, < 0.01 µM (active); in the experiment on RXF 393, > 100 µM (inactive); in the experiment on NCI/ADR-RES, < 0.01 µM (active); with SK-MEL-5, < 0.01 µM (active). Also, the GI50 in the experiment with SF-268 was < 0.01 µM (active); in the experiment on SK-MEL-28, > 100 µM (inactive); in the experiment with LOX IMVI, < 0.01 µM (active); in the experiment with HCC 2998 it was < 0.01 µM (active); in the experiment with SK-OV-3, > 100 µM (inactive); with HOP-92 it was > 100 µM (inactive).
For the compound `CCCCCCCSCC(O)COC(c1ccccc1)(c1ccccc1)c1ccccc1` (stereo not drawn), the GI50 with KM12 was 0.051 µM (active); in the experiment with IGROV-1 it was > 100 µM (inactive); in the experiment on HCT-15, 41.6 µM; in the experiment on SNB-19, 76.6 µM (inactive); in the experiment on SR, 22.1 µM (inactive); with SF-539, > 100 µM (inactive). Moreover, the GI50 with MCF7 was 40.1 µM (inactive); in the experiment with M14, 61.7 µM (inactive); with RPMI-8226, 17.5 µM (inactive); with A498 it was > 100 µM (inactive); with NCI/ADR-RES, 72.1 µM (inactive); in the experiment on SK-MEL-5, 23.6 µM (inactive). The GI50 in the experiment with SF-268 was 20.3 µM (inactive); in the experiment with SK-MEL-28, > 100 µM (inactive); in the experiment with LOX IMVI it was 36.1 µM (inactive); in the experiment with HCC 2998, 19.4 µM (inactive); in the experiment on SK-OV-3, > 100 µM (inactive); in the experiment on HOP-92 it was 26.7 µM (inactive).
Consider `O=C(C[C@H](NC(=O)OCc1ccccc1)C(=O)NC1Cc2ccccc2OC1=O)OCc1ccccc1` (stereo partly drawn), for which the GI50 in the experiment on KM12 is > 100 µM (inactive); in the experiment on IGROV-1 it was > 100 µM (inactive); with HCT-15 it was 46 µM; in the experiment on SNB-19 it was > 100 µM (inactive); in the experiment with SR it was > 100 µM (inactive); in the experiment on SNB-75, > 100 µM (inactive). Also, the GI50 in the experiment on MCF7 is 19.4 µM (inactive); in the experiment with M14, > 100 µM (inactive); with RPMI-8226 it was > 100 µM (inactive); in the experiment on A498, > 100 µM (inactive); in the experiment on RXF 393 it was > 100 µM (inactive); in the experiment with NCI/ADR-RES, > 100 µM (inactive). Moreover, the GI50 with SK-MEL-5 was > 100 µM (inactive); with SK-MEL-28, > 100 µM (inactive); with HCC 2998, 15.9 µM (inactive); with SK-OV-3, > 100 µM (inactive); with HOP-92, > 100 µM (inactive).
`CCOC(=O)NC(C(F)(F)F)(C(F)(F)F)P(=O)(OCC(C)C)OCC(C)C`: the GI50 was 14 µM (inactive) with KM12; 10.2 µM (inactive) in the experiment on IGROV-1; 4.18 µM in the experiment on HCT-15; 28.8 µM (inactive) in the experiment with SNB-19; 9.77 µM (inactive) in the experiment on SR; 15.7 µM (inactive) with SF-539. For the same compound, the GI50 was 23.6 µM (inactive) with SNB-75; 4.7 µM (inactive) in the experiment with MCF7; 11.6 µM (inactive) in the experiment with M14; 14.4 µM (inactive) in the experiment with RPMI-8226; 41.9 µM (inactive) in the experiment with A498; 11.3 µM (inactive) in the experiment on RXF 393. Besides, the GI50 with NCI/ADR-RES is 5.05 µM (inactive); in the experiment with SK-MEL-5, 12.1 µM (inactive); in the experiment with SF-268 it was 11.1 µM (inactive); in the experiment on SK-MEL-28, 18 µM (inactive); in the experiment on LOX IMVI, 4.49 µM (inactive); in the experiment on HCC 2998, 34.6 µM (inactive). Also, the results for the GI50 in the experiment on SK-OV-3 and in the experiment on HOP-92 were 13.7 µM (inactive) and 9.38 µM (inactive), respectively.
